Laboratory results: publication PMC3419814 (Bioorganic & medicinal chemistry, 2012)

Assay: logP from HPLC retention times
Assay type: physicochemical

Row | chromatographic logP | Compound
1 | 4.8 to 5.5 | COc1ccc(Cl)cc1Nc1nc(-c2sc(NC(=O)C(C)(C)C)nc2C)c(-n2cc(CO)nn2)s1 [compound 13, N-(2-(5-Chloro-2-methoxyphenylamino)-5-(4-(hydroxyl-methyl)-1H-1,2,3-triazol-1-yl)-4′-methyl-4,5′-bithiazol-2′-yl)pivalamide]
2 | 4.8 to 5.5 | COC(=O)c1cn(-c2sc(Nc3cc(Cl)ccc3OC)nc2-c2sc(NC(=O)C(C)(C)C)nc2C)nn1 [compound 14, Methyl 1-(2-(5-chloro-2-methoxyphenylamino)-4′-methyl-2′-pivalamido-4,5′-bithiazol-5-yl)-1H-1,2,3-triazole-4-carboxylate]
3 | 4.8 to 5.5 | COc1ccc(Cl)cc1Nc1nc(-c2sc(NC(=O)C(C)(C)C)nc2C)c(-n2cc(C(=O)O)nn2)s1 [compound 15, 1-(2-(5-Chloro-2-methoxyphenylamino)-4′-methyl-2′-pivalamido-4,5′-bithiazol-5-yl)-1H-1,2,3-triazole-4-carboxylic acid]
